Target: T1, human Edg-1 receptor (Homo sapiens, UniProt P21453)
T1 construct: FLAG (N); expressed in transfected cells; membrane preparation
Test: GTP-γ-S assay using human Edg-1 receptors (scintillation proximity assay, CHO Flp-In cell membrane preparation)
Format: biochemical
Conditions: test compound 10 μM; 10 μM S1P regarded as 100% activation; background-corrected; triplicate
Excerpt: Determination of the Pharmacological Activity A) GTP-γ-S Assay Using Human Edg-1 Receptors In order to determine the Edg-1 receptor activation by the compounds of the invention, a GTP-γ-S ((GTP-γ-S=guanosine 5′-[thio]triphosphate) assay for G-protein coupled receptor binding based on the scintillation proximity assay principle was used, employing a cell membrane preparation from a CHO Flp-In cell line which constitutively overexpresses the human Edg-1 receptor. The Flp-In™ expression system (Invitrogen/Life Technologies™ cat. no. K6010-01) allows the generation of stable mammalian cell lines into which the gene of interest has been integrated through […] at a specific genomic location called Flp Recombination Target (FRT) site by means of a Flp recombinase encoded by the pOG44 expression plasmid. […] The EDG-1 membrane preparation obtained in (b) was initially used in a commercial scintillation proximity assay kit (Amersham/GE Healthcare, cat. no. RPNQ0210) to quantify the receptor activation. Here, the ligand-induced binding of ^35S-radiolabeled GTP-γ-S to the receptor-containing membrane causes the emission of light in the scintillation beads attached to the membrane preparation, which allows quantification of the in vitro activity of the Edg-1-agonistic compound. […]

T1 sequence (P21453 whole entry): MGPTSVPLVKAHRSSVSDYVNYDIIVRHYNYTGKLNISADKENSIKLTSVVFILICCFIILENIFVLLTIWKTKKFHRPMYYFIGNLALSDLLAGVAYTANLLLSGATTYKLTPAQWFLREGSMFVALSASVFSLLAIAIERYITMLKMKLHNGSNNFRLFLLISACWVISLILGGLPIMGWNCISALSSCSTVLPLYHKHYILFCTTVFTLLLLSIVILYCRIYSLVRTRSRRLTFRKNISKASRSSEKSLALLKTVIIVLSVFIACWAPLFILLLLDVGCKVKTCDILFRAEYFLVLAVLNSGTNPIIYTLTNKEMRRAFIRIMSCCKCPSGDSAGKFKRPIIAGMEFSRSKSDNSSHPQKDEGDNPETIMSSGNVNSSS

Edg-1 receptor activation by example compounds at 10 μM in percent of the activation by 10 μM S1P (% activation) [%]	Compound
116	Cc1cc(-c2nc3cnc(Oc4cccc(Cl)c4)nc3o2)cc(C)c1OC1CC(C(=O)O)C1 (centres unmarked) [Example 1, 3-{4-[5-(3-Chlorophenoxy)oxazolo[5,4-d]pyrimidin-2-yl]-2,6-dimethylphenoxy}cyclobutanecarboxylic acid]
83	Cc1cc(-c2nc3cnc(Oc4ccccc4F)nc3o2)cc(C)c1OC1CC(C(=O)O)C1 (centres unmarked) [Example 2, 3-{4-[5-(2-Fluorophenoxy)oxazolo[5,4-d]pyrimidin-2-yl]-2,6-dimethylphenoxy}cyclobutanecarboxylic acid]

From US8735402B2, “Cycloalkyloxycarboxylic acid derivatives” (Sanofi, priority 2011, dated 2014)
